In patent US20190105367A1, “ANTIMICROBIAL 4-OXOQUINOLIZINES” (Emergent Product Development Gaithersburg Inc., priority 2011, published 2019):
Marks after values point to notes of the source that are not given here.

Key:
[1] = tested on: A. baumannii ATCC 19606; experiment: Preliminary MBC without and with sub-inhibitory polymyxin B (Example 4); format: cell-based, Acinetobacter baumannii; conditions: for MBC: 2nd experiment
[2] = tested on: A. baumannii A14; experiment: as above; format: cell-based, Acinetobacter baumannii; conditions: 2nd experiment
Description: (§1) The plates were incubated for 18-20 hours at 37° C. The MBC was read as the lowest concentration at which colony growth was ca. 90% less than the positive control (i.e. usually where single colonies or no colonies were observed).

[3] = tested on: A. baumannii A390; experiment: as above; format: cell-based, Acinetobacter baumannii; conditions: for MBC: 2nd experiment
Description: as §1

[4] = tested on: A. baumannii NCTC 13301; experiment: as above; format: cell-based, Acinetobacter baumannii; conditions: A. baumannii NCTC 13301, preliminary MBC; for MBC: 2nd experiment
Description: as §1

[5] = tested on: A. baumannii A473; experiment: as above; format: cell-based, Acinetobacter baumannii; conditions: for MBC: 2nd experiment
Description: as §1

[6] = tested on: A. baumannii A14; experiment: MIC without and with sub-inhibitory polymyxin B (Example 4); format: cell-based, Acinetobacter baumannii; conditions: 1st experiment
[7] = tested on: A. baumannii A473; experiment: as above; format: cell-based, Acinetobacter baumannii; conditions: A. baumannii A473; for MIC: 2nd experiment
[8] = tested on: A. baumannii J2; experiment: Preliminary MBC without and with sub-inhibitory polymyxin B (Example 4); format: cell-based, Acinetobacter baumannii; conditions: A. baumannii J2, preliminary MBC; for MBC: 2nd experiment
[9] = tested on: A. baumannii A14; experiment: as above; format: cell-based, Acinetobacter baumannii; conditions: A. baumannii A14, preliminary MBC, 1st experiment
[10] = tested on: A. baumannii A401; experiment: MIC without and with sub-inhibitory polymyxin B (Example 4); format: cell-based, Acinetobacter baumannii; conditions: A baumannii A 401; for MIC: 2nd experiment
[11] = tested on: A. baumannii A387; experiment: Preliminary MBC without and with sub-inhibitory polymyxin B (Example 4); format: cell-based, Acinetobacter baumannii; conditions: for MBC: 2nd experiment
[12] = tested on: Acinetobacter sp. (H064200250); experiment: as above; format: cell-based; conditions: preliminary MBC; for MBC: Acinetobacter spp. H064200250 (OXA51), 2nd experiment
Description: as §1

[13] = tested on: A. baumannii A489; experiment: MIC without and with sub-inhibitory polymyxin B (Example 4); format: cell-based, Acinetobacter baumannii; conditions: A. baumannii A489; for MIC: 2nd experiment
[14] = tested on: strains of A. baumannii and one strain of Acinetobacter sp.; experiment: MIC with sub-inhibitory concentrations (0.25x MIC) of polymyxin B, panel of Acinetobacter strains (Example 4); format: cell-based
[15] = tested on: A. baumannii J2; experiment: MIC without and with sub-inhibitory polymyxin B (Example 4); format: cell-based, Acinetobacter baumannii; conditions: A. baumannii J2
[16] = tested on: A. baumannii ATCC 19606; experiment: as above; format: cell-based, Acinetobacter baumannii; conditions: A. baumannii ATCC 19606; for MIC: 2nd experiment
[17] = tested on: A. baumannii A329; experiment: Preliminary MBC without and with sub-inhibitory polymyxin B (Example 4); format: cell-based, Acinetobacter baumannii; conditions: for MBC: 2nd experiment
[18] = tested on: A. baumannii NCTC 13301; experiment: MIC without and with sub-inhibitory polymyxin B (Example 4); format: cell-based, Acinetobacter baumannii; conditions: A. baumannii NCTC 13301; +[…] polymyxin B; 1st experiment
[19] = tested on: A. baumannii A489; experiment: Preliminary MBC without and with sub-inhibitory polymyxin B (Example 4); format: cell-based, Acinetobacter baumannii; conditions: A. baumannii A489, preliminary MBC; for MBC: 2nd experiment
[20] = tested on: Acinetobacter sp. (H064200250); experiment: MIC without and with sub-inhibitory polymyxin B (Example 4); format: cell-based; conditions: for MIC: Acinetobacter spp. H064200250 (OXA51), 2nd experiment
[21] = tested on: A. baumannii A387; experiment: as above; format: cell-based, Acinetobacter baumannii; conditions: A. baumannii A387; for MIC: 2nd experiment
[22] = tested on: A. baumannii A401; experiment: Preliminary MBC without and with sub-inhibitory polymyxin B (Example 4); format: cell-based, Acinetobacter baumannii; conditions: for MBC: 2nd experiment
[23] = tested on: A. baumannii NCTC 13301; experiment: MIC without and with sub-inhibitory polymyxin B (Example 4); format: cell-based, Acinetobacter baumannii; conditions: A. baumannii NCTC 13301; +[…] PB; 2nd experiment
[24] = +[…] polymyxin B, 1st experiment
[25] = without polymyxin B, 1st experiment
[26] = +0.06 μg/ml polymyxin B, 1st experiment
[27] = Acinetobacter spp. H064200250, +[…] polymyxin B, 1st experiment
[28] = Acinetobacter spp. H064200250, without polymyxin B, 1st experiment

Imipenem/cilastatin
MBC ([1]; A. baumannii ATCC 19606, +0.06 μg/ml PB): 1 µg/mL
MBC +0.06 μg/ml PB ([1]; A. baumannii ATCC 19606, +0.06 μg/ml polymyxin B, 1st experiment): 2 µg/mL
MBC ([1]; A. baumannii ATCC 19606, without PB): 4 µg/mL
MBC without PB ([1]; A. baumannii ATCC 19606, without polymyxin B, 1st experiment): 2 µg/mL
MBC ([2]; A. baumannii A14, +0.06 μg/ml PB): 0.5 µg/mL
MBC ([2]; A. baumannii A14, without PB): 1 µg/mL
MBC ([3]; A. baumannii A390, +0.06 μg/ml PB): 4 µg/mL
MBC ([3]; A. baumannii A390, without PB): 16 µg/mL
MBC without PB ([3]; A. baumannii A390, without polymyxin B, 1st experiment): 16 µg/mL
MBC ([4]; +[…] PB): 0.5 µg/mL
MBC +[…] PB [4, 24]: 16 µg/mL
MBC ([4]; without PB): 128 µg/mL
MBC without PB [4, 25]: 128 µg/mL
MBC ([5]; A. baumannii A473, +0.06 μg/ml PB): 4 µg/mL
MBC ([5]; A. baumannii A473, without PB): 32 µg/mL
MBC without PB ([5]; A. baumannii A473, without polymyxin B, 1st experiment): 32 µg/mL
MIC +0.06 μg/ml PB ([6]; +0.06 μg/ml polymyxin B): 1 µg/mL
MIC without PB ([6]; without polymyxin B): 1 µg/mL
MIC ([7]; +0.06 μg/ml PB): 4 µg/mL
MIC ([7]; without PB): 32 µg/mL
MIC without PB [7, 25]: 32 µg/mL
MBC ([8]; +[…] PB): ≤0.125 µg/mL
MBC +[…] PB [8, 24]: ≤0.125 µg/mL
MBC ([8]; without PB): 8 µg/mL
MBC without PB [8, 25]: 4 µg/mL
MBC +0.06 μg/ml PB ([9]; +0.06 μg/ml polymyxin B): 1 µg/mL
MBC without PB ([9]; without polymyxin B): 2 µg/mL
MIC ([10]; +0.06 μg/ml PB): 4 µg/mL
MIC +0.06 μg/ml PB [10, 26]: 8 µg/mL
MIC ([10]; without PB): 32 µg/mL
MIC without PB [10, 25]: 32 µg/mL
MBC ([11]; A. baumannii A387, +0.06 μg/ml PB): 8 µg/mL
MBC +0.06 μg/ml PB ([11]; A. baumannii A387, +0.06 μg/ml polymyxin B, 1st experiment): 8 µg/mL
MBC ([11]; A. baumannii A387, without PB): 16 µg/mL
MBC without PB ([11]; A. baumannii A387, without polymyxin B, 1st experiment): 16 µg/mL
MBC ([12]; +[…] PB): 0.5 µg/mL
MBC ([12]; without PB): 8 µg/mL
MBC +[…] PB [12, 27]: 2 (0.5)* μg/ml
MBC without PB [12, 28]: 16 µg/mL
MIC ([13]; +[…] PB): 0.25 µg/mL
MIC +[…] PB [13, 24]: 2 µg/mL
MIC ([13]; without PB): 64 µg/mL
MIC range with PB (0.25x MIC) Oct. 1, 2008 n = 8 ([14]; 1st experiment, […] polymyxin B, ATCC 19606, A329, A390 and A473 not taken): <0.125 to 16 µg/mL
MIC range with PB (0.25x MIC) Oct. 14, 2008 n = 11 ([14]; 2nd experiment, 0.06 μg/ml polymyxin B, all strains except the ATCC strain): ≤0.125 to 128 µg/mL
MIC ([15]; +[…] PB, 2nd experiment): ≤0.125 µg/mL
MIC +[…] PB [15, 24]: ≤0.125 µg/mL
MIC ([15]; without PB, 2nd experiment): 8 µg/mL
MIC read with alamar blue ([15]; without PB, value in parentheses, 2nd experiment): 4 µg/mL
MIC without PB [15, 25]: 4 µg/mL
MIC ([16]; +0.06 μg/ml PB): 1 µg/mL
MIC +0.06 μg/ml PB [16, 26]: 1 µg/mL
MIC ([16]; without PB): 1 µg/mL
MIC ([16]; without PB, value in parentheses marked *, mark not explained): 4 µg/mL
MIC without PB [16, 25]: 2 µg/mL
MBC ([17]; A. baumannii A329, +0.06 μg/ml PB): 128 µg/mL
MBC ([17]; A. baumannii A329, without PB): >128 µg/mL
MBC without PB ([17]; A. baumannii A329, without polymyxin B, 1st experiment): 128 µg/mL
MIC +[…] PB [18]: 16 µg/mL
MBC ([19]; +[…] PB): 0.25 µg/mL
MBC +[…] PB [19, 24]: 2 µg/mL
MBC ([19]; without PB): 64 µg/mL
MBC without PB [19, 25]: 64 µg/mL
MIC ([20]; +[…] PB): 0.5 µg/mL
MIC ([20]; without PB): 8 µg/mL
MIC +[…] PB [20, 27]: 0.5 µg/mL
MIC without PB [20, 28]: 16 µg/mL
MIC ([21]; +0.06 μg/ml PB): 8 µg/mL
MIC +0.06 μg/ml PB [21, 26]: 8 µg/mL
MIC ([21]; without PB): 16 µg/mL
MIC without PB [21, 25]: 16 µg/mL
MBC ([22]; A baumannii A 401, +0.06 μg/ml PB): 4 µg/mL
MBC +0.06 μg/ml PB ([22]; A baumannii A 401, +0.06 μg/ml polymyxin B, 1st experiment): 8 µg/mL
MBC ([22]; A baumannii A 401, without PB): 32 µg/mL
MBC without PB ([22]; A baumannii A 401, without polymyxin B, 1st experiment): 32 µg/mL
MIC [23]: 1 µg/mL
